Experimental data taken from PubChem BioAssay (NCI).
“And” between values parts separate entries of the source, which are not always exact repeats. Equal entries are not always repeated.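 Values below derive from 48-hour exposures of cells grown in 96-well plates, with endpoints linearly interpolated between the two concentrations bracketing the appropriate inhibition level. At the GI50, growth is halved. The concentration for full growth arrest is given as TGI.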

Columns and labels:
Experiment in all cases: growth of human tumour cells (NCI), 48 h
CCRF-CEM leukemia = tested on: CCRF-CEM leukemia
EKVX NSCLC = tested on: EKVX NSCLC
HOP-92 NSCLC = tested on: HOP-92 NSCLC
NCI-H226 lung = tested on: NCI-H226 lung
NCI-H522 lung = tested on: NCI-H522 lung
OVCAR-5 ovarian = tested on: OVCAR-5 ovarian
RPMI-8226 leukemia = tested on: RPMI-8226 leukemia
SK-MEL-28 melanoma = tested on: SK-MEL-28 melanoma
TK-10 renal = tested on: TK-10 renal
UACC-257 melanoma = tested on: UACC-257 melanoma

| Structure (SMILES) | GI50 (CCRF-CEM leukemia) | TGI (CCRF-CEM leukemia) | GI50 (EKVX NSCLC) | TGI (EKVX NSCLC) | GI50 (HOP-92 NSCLC) | TGI (HOP-92 NSCLC) | GI50 (NCI-H226 lung) | TGI (NCI-H226 lung) | GI50 (NCI-H522 lung) | TGI (NCI-H522 lung) | GI50 (OVCAR-5 ovarian) | TGI (OVCAR-5 ovarian) | GI50 (RPMI-8226 leukemia) | TGI (RPMI-8226 leukemia) | GI50 (SK-MEL-28 melanoma) | TGI (SK-MEL-28 melanoma) | GI50 (TK-10 renal) | TGI (TK-10 renal) | GI50 (UACC-257 melanoma) | TGI (UACC-257 melanoma) |
| --- | --- | --- | --- | --- | --- | --- | --- | --- | --- | --- | --- | --- | --- | --- | --- | --- | --- | --- | --- | --- |
| O=[N+]([O-])c1cc(Cl)c2[nH]c3c(Cl)cc([N+](=O)[O-])cc3c2c1 | 0.391 µM | 24.1 µM | 0.244 µM | > 27.1 µM | 0.0596 µM | 0.405 µM | 0.393 µM | > 100 µM | 0.286 µM | > 100 µM | 1.33 µM | > 29.5 µM | 0.124 µM | > 100 µM | 0.47 µM | > 100 µM | 0.356 µM | 19.1 µM | 0.159 µM | 0.996 µM |
| COc1ccc2c(=O)cc(-c3ccccc3)[nH]c2c1 | 1.48 µM | > 100 µM | 2.25 µM | > 100 µM | 0.378 µM | > 100 µM | 2.14 µM | > 100 µM | 0.698 µM | 14.2 µM | 22.2 µM | > 100 µM | 0.564 µM | > 58.4 µM | 7.84 µM | > 100 µM | > 100 µM | > 100 µM | 0.335 µM | > 100 µM |
| COc1cc(OC)c(C(=O)/C=C/c2cc3c(cc2OCc2ccccc2)OC(C)(C)CC3)cc1CC=C(C)C | 4.02 µM | 19.3 µM | 6.73 µM | 22.6 µM | 3.52 µM | 19.9 µM | 6.61 µM | 22.1 µM | 7.85 µM | > 25 µM | 13.4 µM | > 25 µM | 2.86 µM | 11.6 µM | 4.07 µM | 9.23 µM | 8.89 µM | 19.6 µM | 13.1 µM | > 25 µM |
| CN(CCCCCl)P(=O)(OCCS(=O)(=O)CC(NC(=O)CCC(N)C(=O)O)C(=O)NC(C(=O)O)c1ccccc1)OCC1OC(n2ccc(N)nc2=O)C(F)(F)C1O (stereo unspecified) | 0.0897 µM | > 100 µM | 11.4 µM | > 100 µM | 0.379 µM | 8.63 µM | 8.03 µM | > 93.3 µM | 3.79 µM | > 100 µM | 0.872 µM | > 100 µM | 0.901 µM | > 78.1 µM | 5.06 µM | > 100 µM | 32.8 µM | > 100 µM | 25 µM | > 100 µM |
| CC(C)c1cnn2c(NCc3ccccc3)cc(NC[C@H]3CCNC[C@@H]3O)nc12 | 0.31 µM and 0.672 µM | 6.01 µM and 14.9 µM | 0.861 µM and 0.645 µM | 8.2 µM and 6.07 µM | 0.242 µM and 1.31 µM | 4.22 µM and 5.54 µM | 0.766 µM and 0.725 µM | 4.01 µM and 5.53 µM | 0.844 µM and 0.438 µM | 2.7 µM and 2.43 µM | 0.312 µM and 0.575 µM | 6.72 µM and 5.38 µM | 0.158 µM and 0.211 µM | 1.82 µM and 4.14 µM | 0.388 µM and 0.343 µM | 2.43 µM and 2.41 µM | 1.5 µM and 2.27 µM | 10.4 µM and 10.9 µM | 0.656 µM and 0.716 µM | 4.78 µM and 5.18 µM |
| CCOC(=O)c1cc2cc3c4c(c2oc1=O)CCCN4CCC3 |  | > 100 µM |  | 80 µM |  | 58 µM |  | 51.3 µM |  | 45.6 µM |  | > 100 µM |  | 49.3 µM |  | > 100 µM |  | > 100 µM |  | > 100 µM |
| NCCSSCCN |  | > 100 µM |  | > 100 µM |  | > 100 µM |  | > 100 µM |  | > 100 µM |  | > 100 µM |  | > 100 µM |  | > 100 µM |  | > 100 µM | > 100 µM and 18.2 µM | > 100 µM |
| O=C(/C=C/C12c3ccccc3C(c3ccccc31)C1C(=O)NC(=O)C12)c1ccc(Cl)cc1Cl (stereo unspecified) | 1.89 µM | 7.23 µM | 1.86 µM | 4.16 µM | 1.5 µM | 3.3 µM | 2.14 µM | 5.91 µM | 1.69 µM | 3.41 µM | 1.72 µM | 3.3 µM | 1.68 µM | 4.41 µM | 1.78 µM | 3.27 µM | 1.9 µM | 3.5 µM | 1.76 µM | 3.46 µM |
| COC(=O)c1cc2c3ccccc3n3c(=O)c4cc5ccc(N(S(=O)(=O)c6ccc(C)cc6)S(=O)(=O)c6ccc(C)cc6)cc5nc4c(n1)c23 | 19.2 µM | 44.9 µM | 53.6 µM | > 100 µM | 12.4 µM | 34.3 µM | 33.8 µM | > 100 µM | 83.7 µM | > 100 µM | > 100 µM | > 100 µM | 43.7 µM | > 100 µM | > 100 µM | > 100 µM | 19.4 µM | 44 µM | > 100 µM | > 100 µM |
| Nc1nonc1-c1nc2cnccc2n1C1CC1 | 7.99 µM | > 25 µM | 1.63 µM | > 25 µM | 0.502 µM | > 25 µM | 0.739 µM | > 14.6 µM | 3.43 µM | 13.2 µM | 5.14 µM | > 25 µM | 6.46 µM | 24.4 µM | 8.47 µM | > 20.9 µM | 0.636 µM | > 20.3 µM | 18.1 µM | > 25 µM |
| Cc1nc(-c2ccccc2)n2nc(NCCCN3CCOCC3)ncc12 | > 25 µM | > 25 µM | > 25 µM | > 25 µM | 10.6 µM | > 25 µM | > 8.17 µM | > 25 µM | > 25 µM | > 25 µM | > 25 µM | > 25 µM | > 25 µM | > 25 µM | > 25 µM | > 25 µM | 19.1 µM | > 25 µM | > 25 µM | > 25 µM |
| COc1ccc(NC(=O)/C(=C/c2ccccc2)C(C)=O)cc1 |  | 27.9 µM |  | 49.4 µM |  | 29.6 µM |  | 96.9 µM |  | 4.6 µM |  | 34.1 µM |  | 24.8 µM |  | 26.1 µM |  | 37.4 µM |  | 29.3 µM |
| FC(F)(c1ccc2ncccc2c1)c1nnc2ccc(-c3ccncc3)nn12 | > 100 µM | > 100 µM | 21.4 µM | > 100 µM | 18.3 µM | > 100 µM | 45.9 µM | > 100 µM | > 100 µM | > 100 µM | > 100 µM | > 100 µM | 53.3 µM | > 100 µM | > 100 µM | > 100 µM | 73.1 µM | > 100 µM | > 100 µM | > 100 µM |
| O=C(CCC(=O)Nc1ccc(Cl)c(Cl)c1)CC(=O)c1ccc(Br)cc1 |  | > 100 µM |  | > 100 µM |  | > 100 µM |  | > 100 µM |  | > 100 µM |  | > 100 µM |  | > 100 µM |  | > 100 µM |  | > 100 µM |  | > 100 µM |
| CS(=O)(=O)CCNCc1cc(-c2cc3c(Nc4ccc(OCc5cccc(F)c5)c(Cl)c4)ncnc3s2)cs1 | 11 µM | > 25 µM | 3.42 µM | > 25 µM | 4.34 µM | > 25 µM | 15.1 µM | > 25 µM | 9.64 µM | > 25 µM | 13.5 µM | > 25 µM | 6.95 µM | 23.2 µM | 12.5 µM | > 25 µM | 3.16 µM | > 25 µM | 12.9 µM | > 25 µM |
| CC(C)c1c(-c2ccccc2)nc2c(C#N)c[nH]n2c1=O | 28.5 µM | > 100 µM | 49.4 µM | > 100 µM | 7.85 µM | 49.6 µM | 27 µM | > 87.7 µM | 26 µM | 80 µM | 38.8 µM | > 100 µM | 24.2 µM | 67.7 µM | 33.5 µM | > 100 µM | 29.1 µM | > 100 µM | 23.1 µM | 66.9 µM |
| CC(=O)Oc1ccc(C23c4ccccc4C2(OC(C)=O)c2cc(OC(C)=O)ccc23)cc1 (stereo unspecified) | 3.05 µM | 12.4 µM | 3.52 µM | 16.6 µM | 5.01 µM | 20.3 µM | 20.4 µM | 63.2 µM | 2.81 µM | 8.04 µM | 5.54 µM | 18 µM | 2.29 µM | 6.66 µM | 31.6 µM | > 100 µM | 6.23 µM | > 100 µM | 22.9 µM | 60.8 µM |
| CC1=CC(=O)CC2(C)CC[C@@H]3C[C@]12OC3(C)C (stereo partly specified) |  | > 100 µM |  | > 100 µM |  | > 100 µM |  | > 100 µM |  | > 100 µM |  | > 100 µM |  | > 100 µM |  | > 100 µM |  | > 100 µM |  | > 100 µM |
| Cn1c(C(=O)c2ccncc2)cc2ccccc21 | > 100 µM | > 100 µM | 78.1 µM | > 100 µM | 40.2 µM | > 100 µM | > 100 µM | > 100 µM | 78.5 µM | > 100 µM | > 100 µM | > 100 µM | 48.8 µM | > 100 µM | > 100 µM | > 100 µM | > 100 µM | > 100 µM | > 100 µM | > 100 µM |
| O=C(O)c1ccc(NCn2nc(-c3ccccc3O)oc2=S)cc1 | 7.38 µM | > 100 µM | > 100 µM | > 100 µM | 33.8 µM | 82.6 µM | > 100 µM | > 100 µM | > 100 µM | > 100 µM | > 100 µM | > 100 µM | > 100 µM | > 100 µM | > 100 µM | > 100 µM | > 100 µM | > 100 µM | > 100 µM | > 100 µM |
